Patent US20260115194A1, “NEW TREATMENTS FOR PAIN” (Sevenless Therapeutics Limited, priority 2023, published 2026)

Target: T1, KRAS WT/SOS1 (Homo sapiens, UniProt Q07889)
T1 sequence (Q07889 1-1333): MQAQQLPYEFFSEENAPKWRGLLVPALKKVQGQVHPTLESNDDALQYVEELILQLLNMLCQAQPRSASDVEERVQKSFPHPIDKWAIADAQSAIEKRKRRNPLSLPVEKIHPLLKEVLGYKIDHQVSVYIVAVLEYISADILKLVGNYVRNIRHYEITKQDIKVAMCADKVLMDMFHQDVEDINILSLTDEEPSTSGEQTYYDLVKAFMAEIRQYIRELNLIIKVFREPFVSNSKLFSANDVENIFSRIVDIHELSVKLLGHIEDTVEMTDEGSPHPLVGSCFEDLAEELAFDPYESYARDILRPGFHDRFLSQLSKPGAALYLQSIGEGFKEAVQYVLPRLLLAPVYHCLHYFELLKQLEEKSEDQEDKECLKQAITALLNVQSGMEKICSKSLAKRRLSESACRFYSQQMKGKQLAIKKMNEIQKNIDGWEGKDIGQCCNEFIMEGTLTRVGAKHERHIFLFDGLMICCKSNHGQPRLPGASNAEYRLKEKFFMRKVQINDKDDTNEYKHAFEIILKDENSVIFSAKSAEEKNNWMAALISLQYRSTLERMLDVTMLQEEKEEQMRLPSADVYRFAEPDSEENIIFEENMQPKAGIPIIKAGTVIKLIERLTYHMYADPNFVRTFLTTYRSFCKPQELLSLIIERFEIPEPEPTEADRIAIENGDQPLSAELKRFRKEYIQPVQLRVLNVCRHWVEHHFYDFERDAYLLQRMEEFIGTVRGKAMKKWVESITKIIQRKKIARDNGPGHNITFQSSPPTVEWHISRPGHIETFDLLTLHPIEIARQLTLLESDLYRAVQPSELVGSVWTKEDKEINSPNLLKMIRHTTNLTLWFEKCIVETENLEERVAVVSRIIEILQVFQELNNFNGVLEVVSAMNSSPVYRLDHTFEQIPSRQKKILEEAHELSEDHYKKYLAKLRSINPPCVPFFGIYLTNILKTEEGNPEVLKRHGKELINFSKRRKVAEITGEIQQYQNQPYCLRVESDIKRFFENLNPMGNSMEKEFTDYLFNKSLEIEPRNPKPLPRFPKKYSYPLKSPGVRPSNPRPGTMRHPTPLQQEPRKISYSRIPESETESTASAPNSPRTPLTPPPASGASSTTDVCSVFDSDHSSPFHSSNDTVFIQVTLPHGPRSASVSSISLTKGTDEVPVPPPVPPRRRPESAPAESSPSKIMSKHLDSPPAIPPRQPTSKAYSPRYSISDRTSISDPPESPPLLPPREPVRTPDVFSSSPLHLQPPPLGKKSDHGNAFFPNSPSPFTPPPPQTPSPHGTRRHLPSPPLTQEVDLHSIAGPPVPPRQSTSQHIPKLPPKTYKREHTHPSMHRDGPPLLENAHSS
Experiment: HTRF KRAS WT/SOS1 PPI kit (Cisbio) screen for SOS1 inhibitors
Assay type: binding
Conditions: 10-point 1/2-log dilution from 10 μM, 60 minutes at room temperature
Experimental: Compounds were screened using an HTRF KRAS WT/SOS1 PPI kit provided by Cis bio, according to the manufacturer's instructions, with the modifications described below. All reagents were allowed to equilibrate to room temperature and diluted to working stock in Binding Domain Detection buffer (BDD buffer). Stock solutions were prepared by adding 1 part Tag1-KRAS WT/GTP to 1 part Tag2-SOS1 and 1 part BDD. Separately, 1 part Anti-Tag1 XL665 antibody premix was added to Anti-Tag2 Tb cryptate antibody premix. BI-3406 (Selleck Chemicals) was used as a standard, solubilised to 10 mM in DMSO. Test compounds were also solubilised to 10 mM in DMSO. […] Per well, 6 μL of Tag1-KRAS WT/GTP premix, 4 ul Tag2-SOS1 premix and 10 μl of Anti-Tag1 XL665 and Anti-Tag2 Tb cryptate antibodies were then added using a E1-ClipTip™ Electronic Adjustable Multichannel Equalizer Pipette. After the final addition, the plate was covered and placed in the benchtop incubator set at 22° C. The reaction was incubated for 60 minutes at room temperature, prior to reading using a Pherastar FSX plate reader.

- IC50: < 0.1 µM
SMILES: Cc1nc(N[C@H](C)c2cccc(C(F)F)c2F)c2cc(S(=O)(=O)N3CC4CC(C3)O4)ncc2n1 [Example 18, 6-((6-oxa-3-azabicyclo [3.1.1]heptan-3-yl)sulfonyl)-N—((R)-1-(3-(difluoromethyl)-2-fluorophenyl)ethyl)-2-methylpyrido[3,4-d] pyrimidin-4-amine]
